Results on 18 compounds are retold here after patent publication US9856279B2 (AGIOS PHARMACEUTICALS, INC, priority 2011, dated 2018).

One assay has as its system HT1080 cells. The experiment in a line: Cellular assay for IDH1m inhibitors: inhibition of 2-HG production (LC-MS, 48 hours) in HT1080 cells. It counts as cell-based. The settings on record: Homo sapiens, HT-1080; inhibition of 2-HG production, HT1080 cells; read-out: HT1080 IC50. Put shortly:
(§1)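 Each cell line is plated at 5000 cells/well in DMEM with 10% FBS and left overnight at 37 °C. Test compounds are then added for 48 h, after which 2-HG in the medium is determined by LC-MS; IC50 reflects 50% reduction compared with control.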

The next assay has as its target IDH1 R132H (Homo sapiens, UniProt O75874, R132H). The experiment in a line: Assay for IDH1 R132H inhibitors (NADPH/aKG, resazurin detection). It counts as biochemical. The settings on record: enzyme assay of Example 12; read-out: IDH1R132H IC50. Put shortly: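 Read-out is resorufin fluorescence (Ex544/Em590) 5 min after adding a 30 μM resazurin detection mix. Before that, mutant enzyme (0.2 μg/ml in its mix) ran 50 min at room temperature with compound, 8 uM NADPH and 2 mM aKG (mix levels) in Tris pH 7.5 with NaCl, MgCl2, BSA.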

Another assay deals with U87MG cells. Briefly: Cellular assay for IDH1m inhibitors: inhibition of 2-HG production (LC-MS, 48 hours) in U87MG cells. The settings on record: Homo sapiens, U-87 MG, inhibition of 2-HG production, U87R132H cells; read-out: U87R132H IC50. It counts as cell-based. Put shortly: as §1

Sequence of IDH1 R132H (O75874 whole entry R132H): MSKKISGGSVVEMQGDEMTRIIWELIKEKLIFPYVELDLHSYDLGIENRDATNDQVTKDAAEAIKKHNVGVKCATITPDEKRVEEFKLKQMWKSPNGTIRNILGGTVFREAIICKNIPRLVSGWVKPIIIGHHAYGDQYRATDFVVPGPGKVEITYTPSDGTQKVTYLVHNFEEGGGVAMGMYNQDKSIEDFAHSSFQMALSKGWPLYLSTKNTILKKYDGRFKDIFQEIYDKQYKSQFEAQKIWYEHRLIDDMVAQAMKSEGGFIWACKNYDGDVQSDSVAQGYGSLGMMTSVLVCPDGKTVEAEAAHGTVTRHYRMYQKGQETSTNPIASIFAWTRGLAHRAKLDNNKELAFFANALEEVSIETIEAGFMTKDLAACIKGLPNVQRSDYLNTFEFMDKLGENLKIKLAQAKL

In the case of `N#Cc1cc(-c2cccc3ncoc23)c(C2CC2)nc1N1CCN(C(=O)C2CC2)[C@H](C2CC2)C1` [Compound 483, (R)-5-(benzo[d]oxazol-7-yl)-2-(4-(cyclopropanecarbonyl)-3-cyclopropylpiperazin-1-yl)-6-cyclopropylnicotinonitrile], the IC50 with HT1080 cells is 1000 to 10000 nM; at IDH1 R132H it was under 500 nM; in the assay on U87MG cells, 500 to 1000 nM.
As to `COC[C@@H]1C[C@@H]1C(=O)N1CCN(c2nc(C3CC3)c(-c3cccc4cnccc34)cc2C#N)C[C@H]1C1CC1` [Compound 480, 6-cyclopropyl-2-((R)-3-cyclopropyl-4-((1S,2R)-2-(methoxymethyl)cyclopropanecarbonyl)piperazin-1-yl)-5-(isoquinolin-5-yl)nicotinonitrile], the IC50 with HT1080 cells, at IDH1 R132H and in the assay on U87MG cells was under 500 nM each time.
Turning to `COCCC(=O)N1CCN(c2nc(C3CC3)c(-c3c(C)noc3C)cc2C#N)C[C@H]1C` [Compound 345, (R)-6-cyclopropyl-5-(3,5-dimethyl-isoxazol-4-yl)-2-[4-(3-methoxy-propionyl)-3-methyl-piperazin-1-yl]-nicotinonitrile], the IC50 in the assay on HT1080 cells is 1000 to 10000 nM; on IDH1 R132H, under 500 nM; in the assay with U87MG cells it was 500 to 1000 nM.
The like results for `C=CC(=O)N(c1ccncc1)c1cc(C#N)c(N2CCN(C(=O)CCOC)[C@H](C)C2)nc1C1CC1` [Compound 702, (R)—N-(5-cyano-2-cyclopropyl-6-(4-(3-methoxypropanoyl)-3-methylpiperazin-1-yl)pyridin-3-yl)-N-(pyridin-4-yl) acryl amide] were, in that order, 1000 to 10000 nM, under 500 nM and 1000 to 10000 nM.
Regarding `C=CC(=O)N1CCC=C(c2c(C3CC3)nc(N3CCN(C(=O)C[C@H]4CCO4)[C@H](C4CC4)C3)c(C#N)c2C)C1` [Compound 789, 5-(1-acryloyl-1,2,5,6-tetrahydropyridin-3-yl)-6-cyclopropyl-2-((R)-3-cyclopropyl-4-(2-((R)-oxetan-2-yl)acetyl)piperazin-1-yl)-4-methylnicotinonitrile], the IC50 in the assay with HT1080 cells, at IDH1 R132H and in the assay with U87MG cells was under 500 nM throughout.
Regarding `COCCC(=O)N1CCN(c2nc(C3CC3)c(-c3cccc(C#N)c3)cc2C#N)C[C@H]1C` [Compound 283, (R)-5-(3-cyanophenyl)-6-cyclopropyl-2-(4-(3-methoxypropanoyl)-3-methylpiperazin-1-yl)nicotinonitrile], the IC50 is 500 to 1000 nM with HT1080 cells, under 500 nM on IDH1 R132H and 1000 to 10000 nM in the assay with U87MG cells.
Take `CCC(=O)Nc1cccc(-c2cc(C#N)c(N3CCN(C(=O)CCOC)[C@H](C)C3)nc2C2CC2)c1` [Compound 424, (R)—N-(3-(5-cyano-2-cyclopropyl-6-(4-(3-methoxypropanoyl)-3-methylpiperazin-1-yl)pyridin-3-yl)phenyl)propionamide]: the results for the IC50 in the assay with HT1080 cells, at IDH1 R132H and with U87MG cells were 500 to 1000 nM, under 500 nM and 500 to 1000 nM, respectively.
As to `C=Cc1ccnc(Oc2cc(C#N)c(N3CCN(C(=O)CCOC)[C@H](C4CC4)C3)nc2C2CC2)c1` [Compound 733], the results for the IC50 with HT1080 cells, on IDH1 R132H and in the assay with U87MG cells were 500 to 1000 nM, under 500 nM and under 500 nM, respectively.
Regarding `C=Cc1cc(-c2cc(C#N)c(N3CCN(C(=O)C4CC4)[C@H](C4CC4)C3)nc2C2CC2)c2ccncc2n1` [Compound 689, (R)-2-(4-(cyclopropanecarbonyl)-3-cyclopropylpiperazin-1-yl)-6-cyclopropyl-5-(2-vinyl-1,7-naphthyridin-4-yl)nicotinonitrile], the IC50 in the assay on HT1080 cells, at IDH1 R132H and in the assay with U87MG cells was under 500 nM throughout.
Turning to `COCCC(=O)N1CCN(c2nc(C3CC3)c(-c3cccc4c[n+]([O-])ccc34)cc2C#N)C[C@H]1C` [Compound 420, (R)-5-(5-cyano-2-cyclopropyl-6-(4-(3-methoxypropanoyl)-3-methylpiperazin-1-yl)pyridin-3-yl)isoquinoline 2-oxide], the IC50 is 1000 to 10000 nM in the assay on HT1080 cells, under 500 nM on IDH1 R132H and 1000 to 10000 nM in the assay with U87MG cells.
In the case of `C=Cc1cc(-c2c(C3CC3)nc(N3CCN(C(=O)CCO)[C@H](C4CC4)C3)c(C#N)c2C)ccn1` [Compound 589, (R)-2-cyclopropyl-6-(3-cyclopropyl-4-(3-hydroxypropanoyl)piperazin-1-yl)-4-methyl-2′-vinyl-3,4′-bipyridine-5-carbonitrile], the IC50 in the assay with HT1080 cells, on IDH1 R132H and in the assay with U87MG cells was under 500 nM each time.
Turning to `COCCC(=O)N1CCN(c2nc(C3CC3)c(-c3ccc(N)cc3)cc2C#N)C[C@H]1C` [Compound 383, (R)-5-(4-aminophenyl)-6-cyclopropyl-2-(4-(3-methoxypropanoyl)-3-methylpiperazin-1-yl)nicotinonitrile], the results for the IC50 in the assay with HT1080 cells, on IDH1 R132H and in the assay on U87MG cells were 1000 to 10000 nM, under 500 nM and 1000 to 10000 nM, respectively.
Turning to `C=Cc1cc(Oc2cc(C#N)c(N3CCN(C(=O)CCO)[C@H](C4CC4)C3)nc2C2CC2)ccn1` [Compound 692, (R)-6-cyclopropyl-2-(3-cyclopropyl-4-(3-hydroxypropanoyl)piperazin-1-yl)-5-(2-vinylpyridin-4-yloxy)nicotinonitrile], the IC50 in the assay with HT1080 cells, at IDH1 R132H and in the assay with U87MG cells was under 500 nM each time.
As to `C=Cc1cc(Nc2c(C3CC3)nc(N3CCN(C(=O)CCO)[C@H](C(C)C)C3)c(C#N)c2C)ccn1` [Compound 799, (R)-6-cyclopropyl-2-(4-(3-hydroxypropanoyl)-3-isopropylpiperazin-1-yl)-4-methyl-5-((2-vinylpyridin-4-yl)amino)nicotinonitrile], the IC50 in the assay with HT1080 cells, on IDH1 R132H and in the assay on U87MG cells was under 500 nM throughout.
For `COCCC(=O)N1CCN(c2nc(C3CC3)c(-c3cccc(F)c3)c(C)c2C#N)C[C@H]1C` [Compound 265, (R)-6-cyclopropyl-5-(3-fluorophenyl)-2-(4-(3-methoxypropanoyl)-3-methylpiperazin-1-yl)-4-methylnicotinonitrile], the IC50 in the assay on HT1080 cells is 1000 to 10000 nM; at IDH1 R132H, under 500 nM; in the assay on U87MG cells it was 1000 to 10000 nM.
With `C=Cc1cnnc(-c2c(C3CC3)nc(N3CCN(C(=O)CCO)[C@H](C4CC4)C3)c(C#N)c2C)c1` [Compound 767, (R)-6-cyclopropyl-2-(3-cyclopropyl-4-(3-hydroxypropanoyl)piperazin-1-yl)-4-methyl-5-(5-vinylpyridazin-3-yl)nicotinonitrile], the IC50 with HT1080 cells, on IDH1 R132H and in the assay on U87MG cells was under 500 nM each time.
Consider `C=Cc1cc(N(C)c2cc(C#N)c(N3CCN(C(=O)CCO)[C@H](C4CC4)C3)nc2C2CC2)ccn1` [Compound 730, (R)-6-cyclopropyl-2-(3-cyclopropyl-4-(3-hydroxypropanoyl)piperazin-1-yl)-5-(methyl(2-vinylpyridin-4-yl)amino)nicotinonitrile], for which the IC50 in the assay on HT1080 cells, at IDH1 R132H and in the assay with U87MG cells was under 500 nM throughout.
In the case of `C=CS(=O)(=O)Nc1cccc(-c2cc(C#N)c(N3CCN(C(=O)CCOC)[C@H](C)C3)nc2C2CC2)c1` [Compound 429, (R)—N-(3-(5-cyano-2-cyclopropyl-6-(4-(3-methoxypropanoyl)-3-methylpiperazin-1-yl)pyridin-3-yl)phenyl)ethenesulfonamide], the IC50 is 1000 to 10000 nM in the assay on HT1080 cells, under 500 nM on IDH1 R132H and 1000 to 10000 nM with U87MG cells.

The IC50 is the point on the concentration scale where inhibition reaches its midpoint.
